In article PMC9346611, “Impact of an Adenosine A2A Receptor Agonist and Antagonist on Binding of the Dopamine D2 Receptor Ligand [^11C]raclopride in the Rodent Striatum” (Molecular Pharmaceutics, 2022):
Like-named read-outs stand apart in the source and are kept apart here. Marks after values point to notes of the source that are not given here.

Columns and labels:
dopamine D2/D3 receptors = target: dopamine D2/D3 receptors; parameters: method as in PMID 2528555; conditions: cited from earlier work
D2R [1] = conditions: CHO cells co-transfected with A2AR and D2R; cited from earlier work
human D2R = tested on: human D2R; parameters: method as in PMID 8982704, PMID 10617149; conditions: SH-SY5Y cells; cited from earlier work
D2R [2] = tested on: D2R; parameters: method as in PMID 26100888; conditions: transiently transfected CHO cells; cited from earlier work
D2R [3] = tested on: D2R; parameters: method as in PMID 11435907; conditions: rat brain slices, striatal area; cited from earlier work
dopamine D2 receptor = conditions: 1 mg/kg
Method: Pretreatment of animals with a high dose of a specific (nonradioactive) receptor ligand is the standard method used in PET imaging to assess whether a PET tracer binds to its intended target. […] Only one PET scan was made in animals subjected to arterial blood sampling.
Blood samples with a volume of 0.10–0.13 mL were drawn from the femoral artery at 10, 20, 30, 40, 50, 60, and 90 s and 2, 3, 5, 7.5, 10, 15, 30, and 60 min after tracer administration. After the collection of each sample, an equal volume of saline with 1% heparin was infused into the artery to compensate for the blood volume loss. Larger blood samples (0.8–1 mL) were drawn at 5, 10, 30, and 60 min for [^11C]raclopride metabolite analysis. From each blood sample, a plasma sample was obtained by the centrifugation of whole blood for 5 min at 3000 g.

dopamine release [4] = tested on: dopamine release; parameters: method as in PMID 10502311; conditions: low doses 0.01–1 μM; cited from earlier work
[5] = Heart rate monitoring with pulse oximeters during PET scan; assay type: in vivo; conditions: 1 mg/kg, persisted throughout the scan
dopamine release [6] = tested on: dopamine release; parameters: method as in PMID 15525341; conditions: locally administered 3, 10, 50, and 100 μM; cited from earlier work
D2R [7] = tested on: D2R; parameters: method as in PMID 11435907; conditions: human brain slices, striatal area; cited from earlier work
dopamine D2R = tested on: dopamine D2R; parameters: method as in PMID 1678519; conditions: rat striatal membrane preparations; cited from earlier work
[8] = cited from earlier work
[9] = parameters: method as in PMID 1684818; conditions: cited from earlier work
D2R/D3R = tested on: D2R/D3R; parameters: method as in PMID 25871974; conditions: human, oral 300 mg; cited from earlier work

SMILES	affinity of D2R for radioligands [^3H]quinpirole and [^3H]raclopride (D2R [2])	k3, accumbens (2TCM) (dopamine D2 receptor)	k3, caudate-putamen (2TCM) (dopamine D2 receptor)	k3, cerebellum (2TCM) (dopamine D2 receptor)	k3, globus pallidus (2TCM) (dopamine D2 receptor)	k3, striatum (2TCM) (dopamine D2 receptor)	k3/k4, accumbens (2TCM) (dopamine D2 receptor)	k3/k4, caudate-putamen (2TCM) (dopamine D2 receptor)	k3/k4, cerebellum (2TCM) (dopamine D2 receptor)	k3/k4, globus pallidus (2TCM) (dopamine D2 receptor)	k4, accumbens (2TCM) (dopamine D2 receptor)	k4, caudate-putamen (2TCM) (dopamine D2 receptor)	k4, cerebellum (2TCM) (dopamine D2 receptor)	k4, globus pallidus (2TCM) (dopamine D2 receptor)	k4, striatum (2TCM) (dopamine D2 receptor)	also measured
CCN1CCC[C@H]1CNC(=O)c1c(O)c(Cl)cc(Cl)c1OC (racemic) [[^11C]raclopride]	–	–	–	–	–	–	–	–	–	–	–	–	–	–	–	Kd (dopamine D2/D3 receptors; read-out: affinity (Kd) by equilibrium analysis): 10 nM; Kd (dopamine D2/D3 receptors; read-out: equilibrium dissociation constant KdVR by compartmental modeling): 6.2 nM
CCNC(=O)[C@H]1O[C@@H](n2cnc3c(N)nc(NCCc4ccc(CCC(=O)O)cc4)nc32)[C@H](O)[C@@H]1O [CGS21680]	reduces the affinity	0.012 ± 0.006*** min^–1	0.034 ± 0.014*** min^–1	0.028 ± 0.012*** min^–1	0.029 ± 0.017*** min^–1	0.033 ± 0.013*** min^–1	0.87 ± 0.20	1.28 ± 0.35	1.19 ± 0.32	1.63 ± 3.6	0.015 ± 0.008*** min^–1	0.026 ± 0.009** min^–1	0.023 ± 0.010** min^–1	0.022 ± 0.021** min^–1	0.026 ± 0.009** min^–1	change of D2R numbers (D2R [1]): without any change; change of affinity of D2R for dopamine (D2R [1]): three- to fourfold decrease; change of affinity of D2R to agonists (human D2R): two- to threefold decreased; IC50 values of competition between [^125I]iodosulpiride and dopamine (D2R [3]): significant increase; electrically evoked dopamine release (dopamine release [4]): inhibit; heart rate, reduction in some animals down to [5]: 94 bpm; dopamine release in entire striatum and shell of nucleus accumbens (dopamine release [6]): increase; IC50 values of competition between [^125I]iodosulpiride and dopamine (D2R [7]): significant increase; decrease of affinity of dopamine D2R for agonist L-(−)-[^3H]NPA (dopamine D2R): 40%
CCn1c(=O)c2c(nc(/C=C/c3ccc(OC)c(OC)c3)n2C)n(CC)c1=O [KW6002, istradefylline]	–	0.035 ± 0.015 min^–1	0.086 ± 0.027** min^–1	0.072 ± 0.028 min^–1	0.087 ± 0.028* min^–1	0.085 ± 0.027** min^–1	0.91 ± 0.27	2.02 ± 0.52	1.75 ± 0.52	1.86 ± 0.54	0.039 ± 0.013 min^–1	0.043 ± 0.012 min^–1	0.041 ± 0.011 min^–1	0.048 ± 0.013 min^–1	0.043 ± 0.011 min^–1	peripheral effects ([8]; rat, in vivo): does not have potent peripheral effects; tolerability after intraperitoneal administration ([8]; rats, doses up to 3 mg/kg): well tolerated; k3/k4, striatum (2TCM) (dopamine D2 receptor): 2.00 ± 0.53
CCNC(=O)[C@H]1O[C@@H](n2cnc3c(N)ncnc32)[C@H](O)[C@@H]1O [NECA, 5’-N-ethylcarboxamide adenosine]	–	–	–	–	–	–	–	–	–	–	–	–	–	–	–	effect on heart rate, bolus of low doses [9]: tachycardia; effect on heart rate, high dose ([9]; total dose of 3 mg/kg infused over 60 min): rapid reduction in heart rate
Cn1c(=O)c2c(ncn2C)n(C)c1=O [caffeine]	reduces the affinity	–	–	–	–	–	–	–	–	–	–	–	–	–	–	increase of D2R/D3R availability in putamen and ventral striatum (D2R/D3R): 5–6%
